Source: publication PMC10535389, “Can Pharmaceutical Excipients Threaten the Aquatic Environment? A Risk Assessment Based on the Microtox® Biotest” (Molecules, 2023)
≈ marks a conversion by molar mass, not a printed value. Where “and” joins values, the source holds several entries; their conditions need not be identical. Equal entries are not always repeated. Structures can show the parent of a compound that is named as a salt. Where two headings read alike, the source gives them in different places. Marks after values point to notes of the source that are not given here.

What was measured:
[1] = test system: Aliivibrio fischeri (strain NRRL B-11177); design: method as in earlier work; details: ref [10] (Turek et al., J. Haz. Mat. 399 (2020) 122839), cited from earlier work; for EC50 5 min: 5 min of incubation
[2] = pH values of samples used in Microtox test; format: physicochemical; details: sample used in Microtox test
[3] = test system: Aliivibrio fischeri (strain NRRL B-11177); assay: modified Microtox Basic Solid Phase Test (bioluminescence inhibition); format: cell-based; details: for EC50: Aliivibrio fischeri
Protocol: (§1) The bioluminescent marine bacterium Aliivibrio fischeri (strain NRRL B-11177) was used to evaluate the acute toxicity of individual excipients, as well as the API–excipient and excipient–excipient mixtures (Figure 1). The inhibition of bioluminescence was measured using the Microtox® Model 500 Analyzer (Modern Water Inc., New Castle, DE, USA). The modified Microtox® Basic Solid Phase Test protocol was applied, which was described in detail in our previous work; a scheme illustrating the course of the ecotoxicological study is shown in Figure 4. The bioluminescence inhibition of A. fischeri was measured after 5, 15, and 30 min of exposure of the bacterium to each sample and then compared with the light output of a control sample. […] Software™.

[4] = as above; format: cell-based, Aliivibrio fischeri; details: Aliivibrio fischeri, Toxicity Category (Based on EC50, 30 min)
Protocol: as §1

[5] = test system: various aquatic organisms; details: ref [16, 17, 18, 19, 20]; cited from earlier work
[6] = NRRLB11177, 0.5 h, 30 min of exposure, 95% confidence interval in brackets, read-out: EC50 30 min
[7] = NRRLB11177, 5 min, read-out: EC50 5 min, 5 min of exposure, 95% confidence interval in brackets
[8] = NRRLB11177, 0.25 h, 15 min of exposure, 95% confidence interval in brackets, read-out: EC50 15 min
[9] = 30 min of exposure, 95% confidence interval in brackets
[10] = 5 min of exposure, 95% confidence interval in brackets
[11] = 15 min of exposure, 95% confidence interval in brackets

| Molecule | EC50 5 min [1] [µg/mL] | EC50 15 min [1] [µg/mL] | pH [2] | EC50 [3, 6] [µg/mL] | EC50 at 30 min [4] [µg/mL] | EC50 [3, 7] [µg/mL] | EC50 [3, 8] [µg/mL] | EC50 30 min [3, 9] | also measured |
| --- | --- | --- | --- | --- | --- | --- | --- | --- | --- |
| CCCCc1nc(Cl)c(CO)n1Cc1ccc(-c2ccccc2-c2nn[nH]n2)cc1 [LOS-K, Losartan potassium, reference compound] | 583.88 | 659.02 | 7.750 | 277 |  |  |  |  |  |
| OC[C@H]1O[C@@H](O[C@H]2[C@H](O)[C@@H](O)[C@@H](O)O[C@@H]2CO)[C@H](O)[C@@H](O)[C@H]1O [Lactose monohydrate] |  |  | 5.113 |  | > 100 | 11700 | 14000 |  | EC50 ([3]; NRRLB11177, 0.5 h, 30 min of exposure, EC50 calculated from extrapolated data, read-out: EC50 30 min): 16400 µg/mL |
| OC[C@@H](O)[C@@H](O)[C@H](O)[C@H](O)CO [Mannitol] |  |  | 6.390 | 4250 (≈ 23300 µM) | > 100 | 12600 (≈ 69000 µM) | 5400 (≈ 29700 µM) |  |  |
| CNC[C@H](O)[C@@H](O)[C@H](O)[C@H](O)CO [Meglumine] |  |  | 10.830 and ~11 | 10 to 100 | 10 to 100 | 28.6 | 19.7 | 18.05 (7.237–45.02) 0.7516 mg/L |  |
| CCCCCCCCCCCCOS(=O)(=O)O [Sodium lauryl sulfate (SLS), Sodium lauryl sulfate] |  |  | 6.779 | < 1 | < 1 | 1.37 | 0.8 | 0.5544 (0.1138–2.702) 0.6931 mg/L | LC50 (lethal concentration) [5]: 1 to 13.9 µg/mL |
| CCCCCCCCCCCCCCCCCCOC(=O)/C=C/C(=O)[O-].[Na+] [Sodium stearyl fumarate] |  |  |  |  |  |  |  |  | EC50 5 min ([3]; 5 min, value calculated using two points, 95% confidence interval and R^2 could not be determined): 56,456 ^[b] mg/L; EC50 15 min ([3]; 15 min of exposure, EC50 calculated from extrapolated data): 12,815 ^[a] (38.84–4,457,999) 0.9221 mg/L; EC50 30 min ([3]; 30 min of exposure, EC50 calculated from extrapolated data): 80,534 ^[a] (2479–2,616,211) 0.8896 mg/L |
| OC[C@@H](O)[C@@H](O)[C@H](O)[C@@H](O)CO [Sorbitol] |  |  | 7.446 |  | > 100 |  |  | Non-toxic in tested concentration, hormesis | EC50 5 min [3, 10]: Non-toxic in tested concentration, hormesis; EC50 15 min [3, 11]: Non-toxic in tested concentration, hormesis; EC50 30 min ([3]; 30 min of exposure, 95% confidence interval in brackets, listed as sorbitol): completely non-toxic at the tested concentration |
| CCCc1nc2c(C)cc(-c3nc4ccccc4n3C)cc2n1Cc1ccc(-c2ccccc2C(=O)O)cc1 [TEL, Telmisartan, reference compound] | 196.52 (≈ 382 µM) | 99.70 (≈ 194 µM) | 8.036 | 77.3 (≈ 150 µM) |  |  |  |  |  |
| CCCCC(=O)N(Cc1ccc(-c2ccccc2-c2nnn[nH]2)cc1)[C@H](C(=O)O)C(C)C [VAL, Valsartan, reference compound] | 143.20 (≈ 329 µM) | 234.83 (≈ 539 µM) | 4.970 | 150 (≈ 346 µM) |  |  |  |  |  |
| Magnesium carbonate (heavy) |  |  | 10.257 |  |  |  |  | 65.60 (44.19–97.37) 0.9738 mg/L | EC50 5 min [3, 10]: 109.8 (55.61–216.6) 0.9360 mg/L; EC50 15 min [3, 11]: 86.42 (58.99–126.6) 0.9678 mg/L; EC50 30 min ([3]; 30 min of exposure, 95% confidence interval in brackets, listed as magnesium carbonate): 10 to 100 mg/L; Toxicity Category (Based on EC50, 30 min) ([3]; GHS acute toxicity categories [11]): III ((III) harmful, 10 < EC50 < 100 mg/L) |
